The source of these data is patent US11767316B2, “Non-fused thiophene derivatives and their uses” (ENYO PHARMA, priority 2018, dated 2023).

One assay concerns PRXF PC-3M. Kind of assay: Cytotoxicity, propidium iodide based monolayer assay, PRXF PC-3M. To be noted: Homo sapiens, 96 h; PRXF PC-3M (prostate adeno carcinoma), four days of treatment, T/C=50%; read-out: Absolute IC50. The class given is cell-based. On the procedure: (§1) The cytotoxicity was tested for compounds of the invention on five different cell-lines, namely LXFL 1121, MAXF 401, MMXF L-636, PRXF PC-3M and UXF 1138 which are respectively lung large cell carcinoma, breast adeno carcinoma, multiple myeloma, prostate adeno carcinoma and uterine sarcoma.
(§2) A working stock solution of the test compounds was prepared in DMSO at a concentration of 33 mM or 8.25 mM, and small aliquots were stored at −20° C. On each day of an experiment, a frozen aliquot of the working stock solution was thawed and stored at room temperature prior to and during treatment.
(§3) All liquid handling steps were performed using the Tecan Freedom EVO 200 platform. First, serial 2-fold dilutions of the 33 mM DMSO working stock solution were done in DMSO. […]
(§4) A modified propidium iodide (PI) based monolayer assay was used to assess the anti-cancer activity of the compounds. Briefly, cells were harvested from exponential phase cultures, counted and plated in 96 well flat-bottom microtiter plates at a cell density of 4,000 to 40,000 cells/well dependent on the cell line's growth rate. […] After an incubation period of 1-2 hours at room temperature, fluorescence (FU) was measured using the Enspire Multimode Plate Reader (excitation λ=530 nm, emission λ=620 nm) to quantify the amount of attached viable cells. […]

The next assay relates to UXF 1138. Nature of the assay: Cytotoxicity, propidium iodide based monolayer assay, UXF 1138. In kind it is cell-based. To be noted: 96 h; UXF 1138 (uterine sarcoma), four days of treatment, T/C=50%; read-out: Absolute IC50. How it is done: as §1, §2, §3, §4
The next assay has as its system LXFL 1121. Kind of assay: Cytotoxicity, propidium iodide based monolayer assay, LXFL 1121. The conditions noted are these: 96 h; LXFL 1121 (lung large cell carcinoma), four days of treatment, T/C=50%; read-out: Absolute IC50. On the procedure: as §1, §2, §3, §4
The next assay deals with MMXF L-363. Nature of the assay: Cytotoxicity, propidium iodide based monolayer assay, MMXF L-363. The class given is cell-based. The conditions noted are these: Homo sapiens, 96 h; MMXF L-363 (multiple myeloma), four days of treatment, T/C=50%; read-out: Absolute IC50. How it is done:
as §1, §2, §3, §4

The subject of a further assay is diabetic mice model. Kind of assay: HbA1c in diabetic mice model (db/db). To be noted: PO 7 or 20 mg/kg BID or 40 mg/kg QD, 28 days of dosing, FIG. 1. In kind it is in vivo. On the procedure:
Compound #16 has been tested on a diabetic mice model. […] Therefore, this compound can be useful for treating diabetes.
Male db/db (BKS.Cg-m 1/1 Leprdb/J) mice aged 6 weeks at the time of arrival were obtained from Janvier (France) and acclimatized to their new environment. Animals were housed in groups of 2 in a light, temperature and humidity-controlled room (a 12-hour light/dark cycle, with lights off at 4 PM; 23+/−1° C.; 50% relative humidity). All animals had free access to standard Purina 5008 chow (LabDiet) and domestic-quality tap water.
The study was initiated in mice aged 8 weeks. Three days before first dosing, a blood sample was collected for determination of baseline blood glucose and hemoglobin A1c (HbA1c) levels. Based on these baseline HbA1c and fed blood glucose levels, mice were stratified into treatment groups (n=10) receiving vehicle (CMC (1.5% W/V) Sigma (ref.C9481), Tween 80 (0.25% V/V) Sigma (ref.59924) in water) or orally administered Compound #16 as follows: • 7 mg/kg, PO BID (twice a day) • 20 mg/kg, PO BID (twice a day) • 40 mg/kg PO QD (Once a day)
Throughout the experimental period, body weight and food and water intake were measured daily in the morning.
Animals were terminated after a total of 28 days of dosing. […]

Consider `O=C(Nc1scc(C2CCc3ccccc3C2)c1C(=O)O)c1ccccc1` (centres unmarked) [#16], for which the 50% inhibitory concentration (IC50) in the assay on PRXF PC-3M stood at 485 nM; in the assay on UXF 1138, 324 nM; in the assay on LXFL 1121, 878 nM; with MMXF L-363, 357 nM. Further, the “Change of glycated hemoglobin, HbA1C” value with diabetic mice model is recorded as “capable of reducing glycated hemoglobin”.

Broadly, the IC50 is the concentration needed to halve the response being measured.
